# According to US11304926B2, “Application of transient receptor potential cation channel TRPV3 in developing drug for preventing or treating psoriasis” (CHINA PHARMACEUTICAL UNIVERSITY, priority 2019, dated 2022):
# “Also recorded” adds a separate entry of the source.
# How the values were obtained:
# Format in all cases: in vivo
# [1] = system: mouse psoriasis model induced by 5% IMQ; test: Content of related inflammatory factors (ELISA) in skin of mouse psoriasis model
# Method: Contents of IL17, IL23, CXCL15 and myeloperoxidase (MPO) in the skin of the mouse were detected by enzyme-linked immunosorbent assay (ELISA), and ELISA kits for various inflammatory factors were all purchased from ELISA Biotechnology Co., Ltd. Specific operation steps were briefly described as follows according to instructions: 50 mg of fresh skin sample was added with 450 μL of PBS (pH=7.2 to 7.4), homogenized on ice, and centrifuged at 5000 rpm for 15 minutes, and then a supernatant was used for detection. A standard substance was diluted according to a proportion, and a blank well, a standard substance well and a well for sample to be detected were set respectively. 50 μL of standard substance was accurately loaded to an ELISA coating plate, and 40 μL of sample diluent was added into the well for sample to be detected firstly, and then added with 10 μL of sample to be detected (a final dilution concentration of the sample was 5 times). The sample was loaded to bottoms of the wells in the ELISA plate without touching walls of the wells to the greatest extent, and then shaken and mixed gently. After sealing the plate with a microplate sealer, the mixture was incubated at 37° C. for 30 minutes. A 30-times concentrated cleaning solution was diluted 30 times with distilled water for later use. The microplate sealer was carefully removed, the liquid was discarded, and the remaining was subjected to spin-drying, and the cleaning solution was fully filled into each well, stood for 30 seconds and then discarded. The steps were repeated for 5 times, and then the mixture was patted dry. 50 μL of ELISA reagent was added into each well, except for the blank well. After sealing the plate with a microplate sealer, the mixture was incubated at 37° C. for 30 minutes. The microplate sealer was carefully removed, the liquid was discarded, and the remaining was subjected to spin-drying, and the cleaning solution was fully filled into each well, stood for 30 seconds and then discarded. […] An absorbance (OD value) of each well was measured sequentially at a wavelength of 450 nm. […]
# [2] = system: mouse psoriasis model induced by 5% IMQ; test: mRNA level of related inflammatory factors (qPCR) at lesion of mouse psoriasis model; conditions: 5% IMQ model
# Method: 20 mg of skin tissues were grinded to powder with liquid nitrogen, added with 0.5 mL of Trizol (Vazyme, article number: R401-01), and incubated on ice for 10 minutes. A split product was transferred to a 1.5 mL RNase-free centrifuge tube, added with 100 μL of chloroform, then shaken vigorously for 15 seconds, stood on ice for 2 minutes, and then centrifuged at 4° C. at 12000 rpm for 10 minutes. A water phase on an upper layer was absorbed into a new 1.5 mL RNase-free centrifuge tube, added with the same amount of isopropanol to precipitate RNA, and then centrifuged at 4° C. at 12000 rpm for 10 minutes. A supernatant was discarded, 500 μL of 75% ethyl alcohol prepared with DEPC water was added to wash the RNA precipitate, and then centrifuged at 4° C. at 12000 rpm for 5 minutes. A supernatant was discarded, the RNA precipitate was slightly dried, and the RNA was dissolved with 10 μL of DEPC water. 1 μL of the mixture was subjected to concentration detection by a detection instrument which was Nano-100 ultra-micro spectrophotometer (Hangzhou Aosheng Instrument Co., Ltd., article number: AS-11010). Another 500 ng of the RNA was subjected to a reverse transcription reaction, which was operated according to instructions of HiScript® II One Step RT-PCR Kit (Vazyme, article number: P611-01). A reverse transcription product was stored at −20° C. for later use. […]
# [3] = system: mouse psoriasis model induced by 5% IMQ; test: PASI score of mouse psoriasis model induced by imiquimod under drug intervention; conditions: for PASI score: n = 8, mean ± SD
# Excerpt: 16 C57BL/6 mice, with half male and half female were purchased from the Experimental Animal Center of Nanjing Medical University, wherein weights of the mice ranged from 18 g to 20 g. Back hair of the mice was shaved off, and then the mice were randomly divided into 2 groups (8 mice in each group) according to male and female genders. Before experiment, the mice were placed in a quiet environment kept away from strong light for 3 days to adapt to the environment, a ratio of an illuminating time to a dark time was 1:1, a room temperature was controlled at 25° C., a humidity was 55%, and the mice could eat and drink freely. 62.5 mg of 5% (0.1 g:2 g) imiquimod ointment (Zhuhai United Laboratories Co., Ltd.) was continuously applied to back skins of the mice for 6 days to induce a psoriasis-like lesion, while the same dose of vaseline ointment was given to the control group.
# The clinical symptom of the mouse psoriasis model was evaluated by a PASI scoring standard from three indicators of erythema, scale and infiltration thickening. The scores ranged from 0 point to 4 points, and a total score was obtained by adding scores of the three indicators. The PASI scoring standard was as follows: 0 point referred to no symptom; 1 point referred to a mild degree; 2 points referred to a moderate degree; 3 points referred to a severe degree; and 4 points referred to an extremely severe degree. The PASI evaluation was conducted daily before the IMQ ointment was applied.
# C57BL/6 mice, with half male and half female were purchased from the Experimental Animal Center of Nanjing Medical University, wherein weights of the mice ranged from 18 g to 20 g. The C57BL/6 mice were randomly divided into 4 groups (8 mice in each group). Mouse psoriasis models were established as described in Embodiment 2 (1). […]
# Back skins of the mice were photographed and recorded on the 1st, 3rd and 5th days after modeling.
# [4] = ELISA, vs modeling mouse applied with IMQ
# [5] = subcutaneous injection, 5% IMQ model
smiles,measurement,setting,value
O=c1cc(-c2ccc(O)cc2)oc2cc(O)c(O)c(O)c12 [Scutellarein],secretion of the related inflammatory factors,[1]; 5% IMQ model,obviously reduce
same,content of CXCL15 in the skin,[1]; [4],significantly lower
same,content of MPO in the skin,[1]; [4],significantly lower
same,transcription (mRNA level) of the related inflammatory factors,[2],obviously reduce
same,PASI score,"[3]; day 1, 0.1‰ scutellarein s.c. 100 μL twice a day + imiquimod",0.0 ± 0.0
same,PASI score,"[3]; day 1, 0.2‰ scutellarein s.c. 100 μL twice a day + imiquimod",0.0 ± 0.0
same,PASI score,"[3]; day 2, 0.1‰ scutellarein s.c. 100 μL twice a day + imiquimod",0.5 ± 0.6
same,PASI score,"[3]; day 2, 0.2‰ scutellarein s.c. 100 μL twice a day + imiquimod",0.0 ± 0.0
same,PASI score,"[3]; day 3, 0.1‰ scutellarein s.c. 100 μL twice a day + imiquimod",1.8 ± 0.9
same,PASI score,"[3]; day 3, 0.2‰ scutellarein s.c. 100 μL twice a day + imiquimod",0.5 ± 0.6
same,PASI score,"[3]; day 4, 0.1‰ scutellarein s.c. 100 μL twice a day + imiquimod",1.8 ± 1.0
same,PASI score,"[3]; day 4, 0.2‰ scutellarein s.c. 100 μL twice a day + imiquimod",0.8 ± 0.9
same,PASI score,"[3]; day 5, 0.1‰ scutellarein s.c. 100 μL twice a day + imiquimod",3.0 ± 0.8
same,PASI score,"[3]; day 5, 0.2‰ scutellarein s.c. 100 μL twice a day + imiquimod",2.0 ± 1.2
same,occurrence of the lesion induced by imiquimod,[3]; [5],delay occurrence of the lesion
same,psoriasis-like lesion on the back skins of the mice (appearance),[3]; [5],could relieve the psoriasis-like lesion; also recorded: can improve the lesion; also recorded: significantly relieve
